These results are taken from patent publication US10232013B2, “Use of an antimicrobial peptide TP4 in treating a cancer” (Academia Sinica, priority 2016, dated 2019).

Counter-ions that a name gives are not always drawn.

What all share (format): cell-based, human
Assay [1] has as its system MB231 (MDA-MB231) cells. In words: MTS cell viability assay, MB231. To be noted: MB231, inhibitor added 30 min prior to TP4, cell viability. How it is done:
Cell-lines used in this study were purchased from the Bioresource Collection and Research Center (BCRC) in and the cells were cultured by the standard cell culture procedures and conditions provided by the BCRC. MB231 (BCRC 60425), MB453 (BCRC 60429), and HDF cells were cultured as previously described by Ting et al. MCF7 […] cells were maintained in α-MEM medium (ThermoFisher Scientific) supplemented with 2 mM L-glutamine, 10% FBS, 0.1 mM non-essential amino acids, 1 mM sodium pyruvate, and antibiotics (100 U mL^−1 penicillin G and […] streptomycin). M10 (BCRC 60197) cells were maintained in α-MEM medium (ThermoFisher Scientific) supplemented with 10% FBS and antibiotics. With the exception of MB231 and MB453, all cells were cultured at 37° C. with 5% CO2. For the cell viability and transfection assay, 1×10^4 cells [5×10^3 M10 cells were seeded and cultured for 48 h to allow the cells sufficient time for attachment] were seeded into the wells of a 96-well plate and cultured overnight. For the transfection assays, cells were transfected with 0.1-0.4 μg FOSB/FOSAB expression plasmid (Origene Technology Inc.) and cell viability was determined after 72 h. The transfection efficiencies (number of cells expressing eGFP/all cells) of the MB231 transfection assays were determined by observing ten randomly selected fields (from three independent transfections) of control GFP plasmid transfections under an inverted microscope (Olympus, IX71) coupled to a digital camera (Olympus DP80), using an […] (LCPlanFI 20×/0.40 Ph1). CellSens standard software (Olympus) was used for image acquisition. During the drug treatment assay, inhibitors (PD98059, BAPTA-AM, and AlP II) were added 30 min prior to TP4, and cell viability was determined at indicated time-points. Transfection was performed using LipofectAMINE™ 3000 (ThermoFisher Scientific), according to the manufacturer's recommendations. Knock-down cells were generated by transducing MB231 cells with pre-synthesized FOSB (or control) shRNA lentiviral particles (Santa Cruz Biotechnology), and selecting puromycin-resistant cells in accordance with the manufacturer's standard protocol. MB231 or M10 cells stably expressing eGFP or mOrange2 were generated through transfection with peGFP-puromycin or pmOrange2-C1 plasmid, followed by puromycin (5 μg mL^−1) or G418 (500 μg mL^−1) selection as described above.
Cell viability was quantitatively analyzed using the CellTiter-Glo® Luminescent Cell Viability Assay kit (ATP assay) and CellTiter 96® AQueous Non-Radioactive Cell Proliferation Assay kit (MTS assay) (Promega) in accordance with the manufacturer's protocol. For MTS assay, 1×10^4 cells were seeded into the wells of a 96-well plate and cultured overnight [5×10^3 M10 cells were seeded and cultured for 48 h to enable sufficient well attachment]. Cells were subsequently treated with different doses of TP4 (2.5-20 μg mL^−1) and harvested at the indicated time-points (3-24 h). Reaction mixtures (20 μL: MTS+PMS, using a ratio 20:1) were directly added to the cells, and the plates were incubated for 3 h at 37° C. Absorbance at 490 nm is directly proportional to the number of living cells in culture and was measured using a photometer (SpectraMax® i3, Molecular Devices). ATP assay was performed as previously described by Ting et al. Lactate dehydrogenase (LDH) assays were performed by quantitatively measuring cell lysis with a Cytotoxicity Detection Kit^PLUS (LDH) (Roche) in accordance with the manufacturer's protocol. The LDH standard was purchased from Cayman Chemical. Briefly, 1×10^4 cells were seeded into the wells of a 96-well plate and cultured overnight. Culture media were replaced with fresh medium containing 1% FBS and cells were subsequently treated with different doses of TP4 (2.5-20 μg mL^−1). Supernatants were harvested at 3 h. […]

Assay [2] relates to FOSB in MB231 cells. In words: FOSB induction, Western blot/immunocytochemistry, MB231. To be noted: for effect of inhibitor on TP4-induced FOSB induction: TNBC cells, pre-treatment prior to TP4, Western blot. How it is done: (§1) Nuclear extracts were prepared as previously described^23. Equal amounts of nuclear extract (200 μg) were used for immunoprecipitation (IP) using Dynabeads protein G (ThermoFisher Scientific), in accordance with the recommended protocol. cJUN antibody (ThermoFisher Scientific, clone C.238.2) was used for immunoprecipitation. Total cell extract preparation and Western blot were performed as previously described^23. Equal amounts of boiled lysate (20 μg of total cell extract) were separated on acrylamide gels, and then transferred to PVDF membranes. The membranes were incubated in blocking solution (0.1 M PBS, 5% non-fat milk, 0.2% Tween-20) for 1 h at room temperature (RT), and then incubated in the same solution with primary or secondary antibodies (GE Healthcare Life Science). […] Membranes were visualized with enhanced chemiluminescence (Immobilon Western Chemiluminescent HRP substrate, Merck Millipore) and detected by an imaging system (UVP, BioSpectrum™ 500). Signal intensities were determined by densitometric analysis (AlphaInnotech) using the AlphaImager program. The results were expressed as relative densitometric units (RDU) (the densitometric units of FOSB+FOSΔB divided by those of GAPDH).
The plasma membrane and mitochondria were stained by pre-incubating biotinylated-TP4 treated cells (14 μg mL^−1, 3 h) with Alexa Flour 647 dye-conjugated wheat germ agglutinin (WGA) (5 μg mL^−1) (ThermoFisher Scientific) for 10 min at 37° C. or with MitoTracker® Red CMXRos probe (200 nM) (ThermoFisher Scientific) for 45 min at 37° C. prior to cell fixation. […] The fluorescent signal (which is proportional to functional mitochondria) was quantitatively determined using Image J software. […] The fluorescent FOSB signal was quantitatively determined using Image J software. […]
For orientation: A western blot detects proteins with antibodies after separation by electrophoresis.

Assay [3] relates to FOSB in MCF7 cells. The assay can be described thus: FOSB induction, Western blot/immunocytochemistry, MCF7. The following applies: Western blot. Here is the method:
as §1, with “GAPDH). […]” for “GAPDH).”

The subject of assay [4] is FOSB in MB453 cells. In words: FOSB induction, Western blot/immunocytochemistry, MB453. The following applies: Western blot. How it is done:
as §1, with “GAPDH). […]” for “GAPDH).”

For `CC(=O)OCOC(=O)CN(CC(=O)OCOC(C)=O)c1ccccc1OCCOc1ccccc1N(CC(=O)OCOC(C)=O)CC(=O)OCOC(C)=O` [BAPTA/AM, 1,2-Bis(2-aminophenoxy)ethane-N,N,N,N-tetraacetic acid tetrakis(acetoxymethyl ester), reference compound], the “effect of inhibitor on TP4-induced TNBC cell death” value in assay [1] is “disrupted”. In addition, the “effect of inhibitor on TP4-induced FOSB induction” value in assay [2] is “disrupted”. Consider `COc1cccc(-c2cc(=O)c3ccccc3o2)c1N` [PD98059, reference compound], for which, in assay [1], the “effect of inhibitor on TP4-induced TNBC cell death” value is reported as “disrupted”.

Turning to `CC(=O)O[C@@]12CO[C@@H]1C[C@H](O)[C@@]1(C)C(=O)[C@H](O)C3=C(C)[C@@H](OC(=O)[C@H](O)[C@@H](NC(=O)OC(C)(C)C)c4ccccc4)C[C@@](O)([C@@H](OC(=O)c4ccccc4)[C@H]21)C3(C)C` [docetaxel, Docetaxel], the FOSB induction result in assay [3] and in assay [4] was “induced FOSB” throughout. As for `COc1cccc2c1C(=O)c1c(O)c3c(c(O)c1C2=O)C[C@@](O)(C(=O)CO)C[C@@H]3O[C@H]1C[C@H](N)[C@H](O)[C@H](C)O1` [doxorubicin, Doxorubicin hydrochloride], in assay [2] (MB231 (TNBC) cells, Western blot), the FOSB induction entry was “induced strong FOSB expression”. In the case of `CC(=O)O[C@H]1C(=O)[C@@]2(C)[C@H]([C@H](OC(=O)c3ccccc3)[C@]3(O)C[C@H](OC(=O)[C@H](O)[C@@H](NC(=O)c4ccccc4)c4ccccc4)C(C)=C1C3(C)C)[C@]1(OC(C)=O)CO[C@@H]1C[C@@H]2O` [paclitaxel, Paclitaxel], the FOSB induction entry in assay [3] and in assay [4] was “induced FOSB” each time. Turning to “Autocamtide-2 related inhibitory peptide II [AIP2, reference compound]”, the “effect of inhibitor on TP4-induced TNBC cell death” value in assay [1] is recorded as “partly prevented”. Moreover, the “effect of inhibitor on TP4-induced FOSB induction” value in assay [2] is on record as “trend towards decrease, but not complete block”.
